Test results taken from patent publication US9611457B2, “Triazine derivatives as differentiation catalysts” (TECHNISCHE UNIVERSITAET WIEN, priority 2011, dated 2017).

Key:
[1] = tested on: Atrial natriuretic factor (ANF) expression, P19 cells; test: ANF test (ANF promoter luciferase reporter) in P19 cells; type: cell-based, murine; parameters: key to Evaluation (luminescence in relation to the blank): −: decrease of luminescence compared to the blank value; +: measurable increase; ++: at least 1.5-fold increase; +++: at least 2-fold increase; conditions: for ANF expression level / efficiency, stated in words: ANF test, P19 cells (DTAB and summary statements also cover C2C12); for Evaluation (luminescence in relation to the blank) / fold induction at 1 µM: P19 cells (**), compound 1 μM in DMSO, 8 days culture, relative to DMSO blank; for fold induction at 1 µM: Mus musculus, 192 h, read-out: Evaluation (luminescence in relation to the blank)
From the text: Atrial natriuretic factor (ANF) or atrial natriuretic peptide (ANP) is a cyclic peptide hormone made up of 28 amino acids, which is predominantly emitted by the muscle cells (myocytes) of the atrium of the heart. It is stored in the atrium as a pro-hormone made of 126 amino acids and is cleaved by serine protease corine into an N-terminal part and the biologically active ANF, which is often used as a cardiac-specific marker protein. In cell differentiation measurements, i.e. in determining the extent to which certain cells have become “cardiac cell-like” by differentiation, often a reporter gene located downstream of the ANF gene is used, as it expression product is easier to detect than the concentration of ANF in a cellular culture, for example, a luciferase gene. Luciferase in an enzyme which catalyzes the oxidation of a luminescent substrate (luciferine). While that happens, light is emitted, and the intensity of that light is correlated with the expression level of ANF and can therefore serve as a measure of ANF expression.
Initial attempts of ANF expression screenings were performed with P19 cells, i.e. murine embryonal carcinoma cells obtained from the ATCC, or C2C12 cells, i.e. a murine myoblast cell line, as models. In preparation, a plasmid was first constructed by amplifying a gene fragment containing a rat ANF promoter region and subcloning it into the PCL3-BV luciferase reporter plasmid of Promega. The P19 cells were temporarily transfected with said plasmid and cultured in Modified Eagle's Medium alpha (MEM-α) with 7.5% neonatal calf serum and 2.5% fetal bovine serum at 37° C. under 5% CO2 in monolayers for 8 days, during which the medium was exchanged three times. The respective compounds were added at about 60% confluence in DMSO as solvents at a concentration of 1 μM or DMSO alone (as a blank). The luminescence of the samples was measured with a Perkin Elmer Victor V 1420 Multilabel Counter. Their increase or decrease in the presence of the compounds of formula (I) is given in Table 1 below in relation to the blank.
The evaluations have the following meanings: • − decrease of luminescence compared to the blank value; • + measurable increase; • ++ at least 1.5-fold increase; • +++ at least 2-fold increase; • * represents C2C12 cells; and • ** represents P19 cells.

| melting point | SMILES | ANF expression level / efficiency, stated in words [1] | Evaluation (luminescence in relation to the blank) [1] | fold induction at 1 µM [1] |
| --- | --- | --- | --- | --- |
| 160 to 164 °C | COc1ccc(Nc2ncnc(NCCO)n2)cc1 [(4), 2-[4-(4-methoxyphenylamino)-1,3,5-triazin-2-ylamino]ethanol] | the poorest measurement results among all compounds | −** |  |
| 198 to 199.5 °C | COC(=O)c1cccc(Nc2nc(Oc3ccccc3)nc(Oc3ccccc3)n2)c1 [(6), 3-[(4.6-diphenoxy-1,3,5-triazin-2-yl)amino]benzoic acid methyl ester] |  |  |  |
| 186.5 to 188 °C | COC(=O)c1cccc(Nc2nc(Oc3ccccc3)nc(Oc3ccc(Cl)cc3)n2)c1 [(7), 3-{[4-(4-chlorophenoxy)-6-phenoxy-1,3,5-triazin-2-yl]amino}benzoic acid methyl ester] |  | −** |  |
| 151.5 to 156 °C | COC(=O)c1cccc(Nc2nc(Oc3ccccc3)nc(Oc3cccc(Cl)c3)n2)c1 [(8), 3-{[4-(3-chlorophenoxy)-6-phenoxy-1,3,5-triazin-2-yl]amino}benzoic acid methyl ester] |  |  | ≥ 1.5 |
| 139 to 141.5 °C | COC(=O)c1cccc(Nc2nc(Oc3ccccc3)nc(Oc3ccccc3Cl)n2)c1 [(9), 3-{[4-(2-chlorophenoxy)-6-phenoxy-1,3,5-triazin-2-yl]amino}benzoic acid methyl ester] |  | −** |  |
| 85 to 86 °C | COC(=O)c1cccc(Nc2nc(Oc3ccccc3)nc(Oc3ccc(C(C)(C)C)cc3)n2)c1 [(10), 3-{[4-(4-t-butylphenoxy)-6-phenoxy-1,3,5-triazin-2-yl]amino}benzoic acid methyl ester] |  | −** |  |
| 56 to 60 °C | COC(=O)c1cccc(Nc2nc(Oc3ccccc3)nc(Oc3ccc(OC)cc3)n2)c1 [(11), 3-{[4-(4-methoxyphenoxy)-6-phenoxy-1,3,5-triazin-2-yl]amino}benzoic acid methyl ester] |  | −** |  |
| 116.5 to 120 °C | COC(=O)c1cccc(Nc2nc(Oc3ccccc3)nc(Oc3ccc(C#N)cc3)n2)c1 [(12), 3-{[4-(4-cyanophenoxy)-6-phenoxy-1,3,5-triazin-2-yl]amino}benzoic acid methyl ester] |  | −** |  |
|  | COC(=O)c1cccc(Nc2nc(Oc3ccccc3)nc(Oc3cccc([N+](=O)[O-])c3)n2)c1 [(13), 3-{[4-(3-nitrophenoxy)-6-phenoxy-1,3,5-triazin-2-yl]amino}benzoic acid methyl ester] |  | −** |  |
| 79 to 82 °C | COC(=O)c1cccc(Nc2nc(Oc3ccc(OC)cc3)nc(Oc3ccc(C=O)cc3OC)n2)c1 [(15), 3-{[4-(4-formyl-2-methoxyphenoxy)-6-(4-methoxyphenoxy)-1,3,5-triazin-2-yl]amino}benzoic acid methyl ester] |  |  |  |
| 180 °C | COC(=O)c1cccc(Nc2nc(Oc3ccc(OC)cc3)nc(Oc3ccc(Br)cc3C=O)n2)c1 [(16), 3-{[4-(4-bromo-2-formylphenoxy)-6-(4-methoxyphenoxy)-1,3,5-triazin-2-yl]amino}benzoic acid methyl ester] |  |  |  |
| 132 to 134.5 °C | COC(=O)c1cccc(Nc2nc(Oc3ccc(C#N)cc3)nc(Oc3ccc(OC)cc3)n2)c1 [(17), 3-{[4-(4-cyanophenoxy)-6-(4-methoxyphenoxy)-1,3,5-triazin-2-yl]-amino}benzoic acid methyl ester] |  |  |  |
| 208 to 209 °C | CC(C)(C)OC(=O)c1cccc(Nc2nc(Oc3ccccc3)nc(Oc3ccccc3)n2)c1 [(18), 3-[(4.6-diphenoxy-1,3,5-triazin-2-yl)amino]benzoic acid t-butyl ester] |  |  |  |
| 172.5 to 174 °C | CC(C)(C)OC(=O)c1cccc(Nc2nc(Oc3ccccc3)nc(Oc3ccc(Cl)cc3)n2)c1 [(19), 3-{[4-(4-chlorophenoxy)-6-phenoxy-1,3,5-triazin-2-yl]amino}benzoic acid t-butyl ester] |  |  |  |
| 187.5 to 190.5 °C | CC(C)(C)OC(=O)c1cccc(Nc2nc(Oc3ccccc3)nc(Oc3cccc(Cl)c3)n2)c1 [(20), 3-{[4-(3-chlorophenoxy)-6-phenoxy-1,3,5-triazin-2-yl]amino}benzoic acid t-butyl ester] |  |  |  |
| 191 to 192 °C | CC(C)(C)OC(=O)c1cccc(Nc2nc(Oc3ccccc3)nc(Oc3ccccc3Cl)n2)c1 [(21), 3-{[4-(2-chlorophenoxy)-6-phenoxy-1,3,5-triazin-2-yl]amino}benzoic acid t-butyl ester] |  |  |  |
| 139 to 141 °C | CC(C)(C)OC(=O)c1cccc(Nc2nc(Oc3ccccc3)nc(Oc3ccc(C(C)(C)C)cc3)n2)c1 [(22), 3-{[4-(4-t-butylphenoxy)-6-phenoxy-1,3,5-triazin-2-yl]amino}benzoic acid t-butyl ester] |  |  |  |
| 68 to 70 °C | COc1ccc(Oc2nc(Nc3cccc(C(=O)OC(C)(C)C)c3)nc(Oc3ccccc3)n2)cc1 [(23), 3-{[4-(4-methoxyphenoxy)-6-phenoxy-1,3,5-triazin-2-yl]amino}benzoic acid t-butyl ester] |  |  |  |
| 176.5 to 178.5 °C | CC(C)(C)OC(=O)c1cccc(Nc2nc(Oc3ccccc3)nc(Oc3ccc(C#N)cc3)n2)c1 [(24), 3-{[4-(4-cyanophenoxy)-6-phenoxy-1,3,5-triazin-2-yl]amino}benzoic acid t-butyl ester] |  |  |  |
| 137 to 148 °C | CC(C)(C)OC(=O)c1cccc(Nc2nc(Oc3ccccc3)nc(Oc3cccc([N+](=O)[O-])c3)n2)c1 [(25), 3-{[4-(3-nitrophenoxy)-6-phenoxy-1,3,5-triazin-2-yl]amino}benzoic acid t-butyl ester] |  |  |  |
| 76 to 79 °C | COc1cc(C=O)ccc1Oc1nc(Nc2cccc(C(=O)OC(C)(C)C)c2)nc(Oc2ccccc2)n1 [(26), 3-{[4-(4-formyl-2-methoxyphenoxy)-6-phenoxy-1,3,5-triazin-2-yl]-amino}benzoic acid t-butyl ester] |  |  |  |
| 88 to 106 °C | COc1ccc(Oc2nc(Nc3cccc(C(=O)OC(C)(C)C)c3)nc(Oc3ccc(C=O)cc3OC)n2)cc1 [(27), 3-{[4-(4-formyl-2-methoxyphenoxy)-6-(4-methoxyphenoxy)-1,3,5-triazin-2-yl]amino}benzoic acid t-butyl ester] |  |  |  |
| 161 to 164 °C | COc1ccc(Oc2nc(Nc3cccc(C(=O)OC(C)(C)C)c3)nc(Oc3ccc(C#N)cc3)n2)cc1 [(28), 3-{[4-(4-cyanophenoxy)-6-(4-methoxyphenoxy)-1,3,5-triazin-2-yl]-amino}benzoic acid t-butyl ester] |  |  |  |
| 244 to 247 °C | O=C(O)c1cccc(Nc2nc(Oc3ccccc3)nc(Oc3ccc(Cl)cc3)n2)c1 [(29), 3-{[4-(4-chlorophenoxy)-6-phenoxy-1,3,5-triazin-2-yl]amino}benzoic acid] |  |  | ≥ 2 |
| 180 to 182 °C | COc1ccc(Oc2nc(Nc3cccc(C(=O)O)c3)nc(Oc3ccc(C=O)cc3OC)n2)cc1 [(37), 3-{[4-(4-formyl-2-methoxyphenoxy)-6-(4-methoxyphenoxy)-1,3,5-triazin-2-yl]amino}benzoic acid] |  |  |  |
|  | OCc1cccc(Nc2nc(Oc3ccccc3)nc(Oc3cccc(Cl)c3)n2)c1 [(42), {3-[(4-(3-chlorophenoxy)-6-phenoxy-1,3,5-triazin-2-yl)amino]phenyl}-methanol] |  | +** and (42) (m-chloro): + |  |
|  | COc1ccc(Oc2nc(Nc3cccc(CO)c3)nc(Oc3ccccc3)n2)cc1 [(45), {3-[(4-(4-methoxyphenoxy)-6-phenoxy-1,3,5-triazin-2-yl)amino]-phenyl}methanol] |  | +** |  |

| SMILES | melting point | ANF expression level / efficiency, stated in words [1] | Evaluation (luminescence in relation to the blank) [1] | fold induction at 1 µM [1] |
| --- | --- | --- | --- | --- |
| CCNc1nc(Cl)nc(Nc2ccc(OC)cc2)n1 [(3), 6-chloro-N2-ethyl-N4-(4-methoxyphenyl)-1,3,5-triazin-2.4-diamine] | 174 to 176 °C | the poorest measurement results among all compounds | −** |  |
| CCOC(=O)c1ccc(Nc2nc(Oc3ccccc3)nc(Oc3ccccc3)n2)cc1 [(5), 4-[(4.6-diphenoxy-1,3,5-triazin-2-yl)amino]benzoic acid ethyl ester] | 159 to 161 °C |  | −** |  |
